# Assay results from patent US6894053B2, “Serotonergic agents with long-acting in vivo effects” (Wyeth, priority 2001, dated 2005).
# Structures can show the parent of a compound that is named as a salt.
# Columns and labels:
# [1] = target: T1, 5-HT1A (Rattus norvegicus, UniProt P19327); assay: Ex vivo binding of [3H]-WAY-100635: 5-HT1A receptor occupancy in rat brain; conditions: for [3H]-WAY-100635 remaining in membrane preparation: 3 mg/kg ip
# T1 construct: from tissue; host or cells: rat brain (cortex and hippocampus membranes in the ex vivo assay; whole animal in the behavioural model)
# T1 sequence (P19327 1-422): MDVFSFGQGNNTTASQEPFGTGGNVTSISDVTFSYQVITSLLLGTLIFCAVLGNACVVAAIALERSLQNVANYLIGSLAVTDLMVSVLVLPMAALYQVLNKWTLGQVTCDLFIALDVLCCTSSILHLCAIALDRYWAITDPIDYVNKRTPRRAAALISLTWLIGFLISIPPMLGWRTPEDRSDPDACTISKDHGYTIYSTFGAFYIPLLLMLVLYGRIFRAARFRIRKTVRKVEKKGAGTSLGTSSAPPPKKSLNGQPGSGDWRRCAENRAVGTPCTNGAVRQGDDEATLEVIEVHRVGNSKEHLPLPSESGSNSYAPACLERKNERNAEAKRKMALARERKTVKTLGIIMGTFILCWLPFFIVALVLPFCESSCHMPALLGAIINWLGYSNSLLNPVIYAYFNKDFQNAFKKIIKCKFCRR
# Method: The serotonergic 5-HT1A receptor occupancy in vivo of the compounds of this invention was determined using ex vivo binding techniques. Rats were injected with a 3 mg/kg ip dose of Example 1 or vehicle and then sacrificed after 1, 24, 72, 168, and 336 hours. […] Tissue was prepared by homogenization and washed once with buffer. Serotonergic 5-HT1A receptors were measured in the membrane preparation using the standard 5-HT1A receptor antagonist [^3H]-WAY-100635 (85 Ci/mmol). Specific binding was determined in the presence of […] methiothepin. The ability of the test compounds to displace [^3H]-WAY-100635 from the 5-HT1A receptor was then determined and expressed as the fmol/mg protein of [^3H]-WAY-100635 remaining in the membrane preparation after treatment with the test compound.
# [2] = target: T1, 5-HT1A; assay: Fixed Responding Model (fixed-ratio 30 food schedule), antagonism of 8-OH-DPAT; format: in vivo
# Method: The ability of the compounds of this invention to function in vivo as 5-HT1A antagonists was assessed in rats using a Fixed Responding Model (Blackman, D., in, “Operant Conditioning: An Experimental Analysis of Behavior”, J. Butcher, Ed., Methuen and Co., Ltd., London). In this model rats are trained to respond (lever pressing) under a fixed-ratio 30 schedule of food presentation in order to receive a food pellet reinforcer. […] 5-HT1A antagonist activity is assessed by determining the test compound's ability to antagonize this decrease in response rate induced by administration of the agonist.
smiles,measurement,setting,value
"COc1ccccc1N1CCN(C[C@@H](CC2CCCCC2)NC(=O)C2(C)CCCCC2)CC1 (as salt: hydrochloride) (hydrate or solvate) [Example 1, 1-Methyl-cyclohexanecarboxylic acid {(1R)-1-cyclohexylmethyl-2-[4-(2-methoxyphenyl)-piperazin-1-yl]-ethyl}-amide hydrochloride hydrate]",melting point,,119 to 121 °C
"COc1ccccc1N1CCN(C[C@@H](CC2CCCCC2)NC(=O)C2(C)CCCCC2)CC1 [Example 1, 1-Methyl-cyclohexanecarboxylic acid {(1R)-1-cyclohexylmethyl-2-[4-(2-methoxyphenyl)-piperazin-1-yl]-ethyl}-amide hydrochloride hydrate]",[3H]-WAY-100635 remaining in membrane preparation,"[1]; 1 hour, cortex",4.0 ± 0.1 fmol/mg protein
same,[3H]-WAY-100635 remaining in membrane preparation,"[1]; 1 hour, striat.",6.0 ± 0.3 fmol/mg protein
same,[3H]-WAY-100635 remaining in membrane preparation,"[1]; 24 hour, cortex",8.0 ± 0.6 fmol/mg protein
same,[3H]-WAY-100635 remaining in membrane preparation,"[1]; 24 hour, striat.",12.0 ± 2.7 fmol/mg protein
same,[3H]-WAY-100635 remaining in membrane preparation,"[1]; 72 hours, cortex",9.0 ± 0.6 fmol/mg protein
same,[3H]-WAY-100635 remaining in membrane preparation,"[1]; 72 hours, striat.",14.0 ± 2.3 fmol/mg protein
same,[3H]-WAY-100635 remaining in membrane preparation,"[1]; 7 days, cortex",7.0 ± 0.3 fmol/mg protein
same,[3H]-WAY-100635 remaining in membrane preparation,"[1]; 7 days, striat.",15.0 ± 1.7 fmol/mg protein
same,[3H]-WAY-100635 remaining in membrane preparation,"[1]; 14 days, cortex",11.0 ± 0.3 fmol/mg protein
same,[3H]-WAY-100635 remaining in membrane preparation,"[1]; 14 days, striat.",26.0 ± 0.6 fmol/mg protein
same,Duration of significant inhibition of WAY-100635 binding after a single administration,"[1]; single administration, ex vivo binding",up to 14 days
same,Reversal of the effect of 8-OH-DPAT on response rate,[2]; 3 mg/kg sc vs 8-OH-DPAT 1 mg/kg sc,completely reverses
same,Response Rate,[2]; 8-OH-DPAT (1 mg/kg sc) + test compound 3 mg/kg sc,2.4 ± 0.3 responses/second
same,Duration of significant inhibition of the 8-OH-DPAT-induced decrease in responding,"[2]; single dose 3 mg/kg sc, daily 8-OH-DPAT 1 mg/kg sc",up to 17 days
same,Response Rate,"[2]; single dose 3 mg/kg sc, daily 8-OH-DPAT 1 mg/kg sc, Day 1",2.4 ± 0.3 responses/second
same,Response Rate,"[2]; single dose 3 mg/kg sc, daily 8-OH-DPAT 1 mg/kg sc, Day 4",2.1 ± 0.3 responses/second
same,Response Rate,"[2]; single dose 3 mg/kg sc, daily 8-OH-DPAT 1 mg/kg sc, Day 7",2.0 ± 0.3 responses/second
same,Response Rate,"[2]; single dose 3 mg/kg sc, daily 8-OH-DPAT 1 mg/kg sc, Day 11",1.8 ± 0.2 responses/second
same,Response Rate,"[2]; single dose 3 mg/kg sc, daily 8-OH-DPAT 1 mg/kg sc, Day 14",1.7 ± 0.3 responses/second
same,Response Rate,"[2]; single dose 3 mg/kg sc, daily 8-OH-DPAT 1 mg/kg sc, Day 17",1.0 ± 0.2 responses/second
same,Response Rate,"[2]; single dose 3 mg/kg sc, daily 8-OH-DPAT 1 mg/kg sc, Day 21",0.7 ± 0.2 responses/second
